# Source: US20140357720A1, “NOVEL PHYTOSPHINGOSINE DERIVATIVES, AND A COSMETIC COMPOSITION COMPRISING THE SAME FOR PREVENTING AND AMELIORATING INFLAMMATORY SKIN DISEASES AND HYPERKERATOSIS DISEASES” (THE CATHOLIC UNIVERSITY OF KOREA INDUSTRY-ACADEMIC …, priority 2011, published 2014)
# Columns and labels:
# [1] = test system: NF-κB; test: Phosphorylation and degradation of IκBα and phosphorylation of NF-κB in TPA-stimulated skin keratinocytes (western blot); format: cell-based, human
# Protocol: (§1) Herein, in order to verify the effect of novel synthetic YG-II-6 compounds and their lead compound, phytosphingosine, on phosphorylation and degradation of IκBα, which is a protein that inhibits the activity of NF-κB by forming a complex with NF-κB, skin keratinocytes were pre-treated with respective compounds for 1 hour and then stimulated with 400 nM TPA for 15 minutes and 30 minutes, respectively. In order to verify the phosphorylation of NF-κB and the expression level of NF-κB in the cytoplasm and nucleus, skin keratinocytes were stimulated for 15 minutes and 1 hour, respectively. The results were confirmed by western blot analysis. In addition, the nuclear translocation of NF-κB was confirmed through reaction with antibodies, fluorescent labeling, and direct observation by microscopy. In order to verify the activity of the respective compounds at the transcription stage, cells were transfected with plasmids labeled with NF-κB luciferase reporter, and the luciferase activity was measured by the luciferase assay. In addition, the phosphorylation of IκBα and NF-κB was measured in the PTA-stimulated mouse skin.
# [2] = test system: mouse skin tissues; test: Apoptosis in skin tissues isolated from TPA-induced mice (FITC staining); format: in vivo; conditions: FIGS. 7C to 7E
# Protocol: (§2) Therefore, in order to verify the degree of the cytotoxicity of the YG-II-6 compounds, their cytotoxicity on human-derived keratinocytes was confirmed by using the WST-1 reagent. In order to verify the effects of the compounds on the expression of proteins associated with apoptosis, the keratinocytes were treated with corresponding concentrations of the respective compound samples and stimulated with TPA for 24 hours, and the expression levels of proteins were confirmed by western blot assay. In addition, human-derived keratinocytes and primary culture skin keratinocytes were treated with the compounds, and after 24 hours, subjected to FITC staining and TUNEL assay, and the skin tissues isolated from TPA-induced mice was subjected to FITC staining.
# [3] = test system: human-derived keratinocytes and primary culture skin keratinocytes; test: Apoptosis in keratinocytes (FITC staining and TUNEL assay); format: cell-based; conditions: 24 hours, FIGS. 7C to 7E
# Protocol: as §2
# [4] = test system: NF-κB; test: NF-κB luciferase reporter assay, TPA stimulation; format: cell-based; conditions: FIG. 1C
# Protocol: as §1
# [5] = test system: human-derived keratinocytes; test: Cytotoxicity on human-derived keratinocytes (WST-1 reagent); format: cell-based; conditions: WST-1, FIG. 7A
# Protocol: as §2
# [6] = test system: ERK1/2, p38, JNK; test: MAP kinase phosphorylation in TPA-stimulated skin keratinocytes (western blot); format: cell-based, human; conditions: FIG. 4
# Protocol: In order to verify the effects of the respective compounds on MAP kinase, skin keratinocytes were treated with the respective compounds for 1 hour, and then stimulated with 400 nM TPA for 15 minutes. The level of phosphorylation was confirmed by western blot assay.
# [7] = test system: NF-κB; test: Nuclear translocation of NF-κB in TPA-stimulated skin keratinocytes (immunostaining, microscopy); format: cell-based, human; conditions: TPA stimulation, FIG. 1B
# Protocol: as §1
# [8] = overall conclusion of section 2-1
Structure (SMILES),"inhibitory effect on the NF-κB activation, fYG-II-6 compared with mYG-II-6 [1, 8]",apoptosis in the mouse skin tissues [2],"activation of NF-κB (phosphorylation and degradation of IκBα) [1, 8]","phosphorylation of IκBα and NF-κB increased by TPA stimulation ([1]; skin keratinocytes, 1 hour pre-treatment, 400 nM TPA, FIG. 1A)",apoptosis in the TPA-stimulated cells [3],NF-κB luciferase activity increased by TPA stimulation [4],concentration at which cytotoxicity was shown [5] [µM],"inhibitory activity on phosphorylation of ERK1/2, p38, and JNK relative to the YG-II-6 compounds [6]","phosphorylation of ERK1/2, p38, and JNK ([6]; skin keratinocytes, 1 hour treatment, 400 nM TPA 15 minutes)",nuclear translocation of NF-κB [7]
"CCCCCCCCCCCCCC[C@@H](O)[C@@H](O)[C@H](CO)NC(=O)/C=C/C(=O)O [fYG-II-6, (E)-4-oxo-4-(((2S,3S,4R)-1,3,4-trihydroxyoctadecan-2-yl)amino)but-2-enoic acid]",relatively greater inhibitory effect than mYG-II-6,–,–,–,–,–,–,–,–,–
CCCCCCCCCCCCCC[C@@H](O)[C@@H](O)[C@@H](N)CO [phytosphingosine],–,induced apoptosis,inhibited,inhibited,induced apoptosis,inhibited,5 to 10,relatively weaker inhibitory activity,no or little inhibitory effect,inhibited
